Among the data in patent publication US20210283163A1, “COMPOSITIONS AND METHODS FOR THE TREATMENT OF ACUTE AND CHRONIC PRURITIS” (Duke University, priority 2018, published 2021) are inward currents values, retold here.

Series [1] addresses T1, TRPV2 (Mus musculus, UniProt Q9WTR1).
T1 construct: expressed in transfected cells; host or cells: CHO cells (ATCC CRL-9096), plasmid pcDNA3.1-mTrpv2, a gift from Korea University
T1 sequence (Q9WTR1 1-756): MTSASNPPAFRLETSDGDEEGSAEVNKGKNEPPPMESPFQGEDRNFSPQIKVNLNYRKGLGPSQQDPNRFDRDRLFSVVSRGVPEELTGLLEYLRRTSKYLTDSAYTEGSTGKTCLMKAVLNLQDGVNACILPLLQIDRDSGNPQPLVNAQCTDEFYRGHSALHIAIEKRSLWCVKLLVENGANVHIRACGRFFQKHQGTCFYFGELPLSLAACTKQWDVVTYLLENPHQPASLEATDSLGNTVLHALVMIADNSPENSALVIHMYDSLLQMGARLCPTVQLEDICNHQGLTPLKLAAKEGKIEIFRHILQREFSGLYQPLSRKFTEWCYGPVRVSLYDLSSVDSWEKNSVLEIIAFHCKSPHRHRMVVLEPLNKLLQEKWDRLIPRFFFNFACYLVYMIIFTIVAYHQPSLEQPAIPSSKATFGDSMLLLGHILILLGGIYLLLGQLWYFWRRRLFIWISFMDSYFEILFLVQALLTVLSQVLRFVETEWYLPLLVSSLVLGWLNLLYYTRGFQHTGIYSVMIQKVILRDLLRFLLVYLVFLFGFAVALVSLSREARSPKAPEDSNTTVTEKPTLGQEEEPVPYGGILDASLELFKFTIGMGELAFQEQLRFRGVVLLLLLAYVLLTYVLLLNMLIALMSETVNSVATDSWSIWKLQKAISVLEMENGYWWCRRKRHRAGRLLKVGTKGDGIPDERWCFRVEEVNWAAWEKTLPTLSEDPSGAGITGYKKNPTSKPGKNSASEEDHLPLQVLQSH
Briefly: Whole-cell patch clamp in CHO cells transfected with mouse Trpv2 cDNA. It is filed as cell-based. Particulars: miR-711 10 μM; cannabidiol 100 μM. As for the experimental part:
(§1) Constructs. The cDNAs of mouse pcDNA3.1-Trpa1, pcDNA3.1-Trpv1, pcDNA3.1-Trpv2, pcDNA3.1-Trpv3, and pcDNA3.1-Trpv4 were kindly provided Dr. Sun Work Hwang from Korea University. Mouse Trpa1 cDNA was subcloned into pCGN-HA backbone (Addgene) using In-Fusion HD Cloning Kit (Clontech Laboratories, CA). Q5 Site-Directed Mutagenesis Kit was used to generate mTrpa1 mutant (M1-M13) based on pCGN-mTrpa1.
(§2) Cell Culture and Transfection. CD4^+ Myla cell line was cultured in RPMI 1640 media (GIBCO), supplemented with 2 mM Glutamine (GIBCO), 100 U/mL IL-2 (Sigma), 100 U/mL IL-4 (Sigma), and 10% human AB serum (Sigma). HuT 102 cell line was cultured in RPMI 1640 supplemented with pyruvate, HEPES, and 10% (v/v) fetal bovine serum (HyClone). HEK293-hTRPA1 stable cell line was cultured in MEM (GIBCO) containing 2 mM Glutamine, 4 μg/mL Blasticidin, 10% FBS (v/v). B16 and CHO cells were cultured in high glucose (4.5 g/L) Dulbecco's Modified Eagle's Medium (GIBCO) containing 10% (v/v) fetal bovine serum (GIBCO). Culture media were supplemented with 50 units/mL of penicillin and 50 μg/mL streptomycin, and cultures were maintained with 5% CO2 in 37° C. incubator. Transfection (2 μg cDNA) was performed with Lipofectamine™ 2000 Reagent (Invitrogen) at 80% confluency and the transfected cells were cultured in the same media for 48 hr before electrophysiological and biochemical studies. […]
For orientation: In patch-clamp work, channel activity is measured electrically.

Series [2] has as its target T2, TRPV3 (Mus musculus, UniProt Q8K424).
T2 construct: expressed in transfected cells; host or cells: CHO cells (ATCC CRL-9096), plasmid pcDNA3.1-mTrpv3, a gift from Korea University
T2 sequence (Q8K424 1-791): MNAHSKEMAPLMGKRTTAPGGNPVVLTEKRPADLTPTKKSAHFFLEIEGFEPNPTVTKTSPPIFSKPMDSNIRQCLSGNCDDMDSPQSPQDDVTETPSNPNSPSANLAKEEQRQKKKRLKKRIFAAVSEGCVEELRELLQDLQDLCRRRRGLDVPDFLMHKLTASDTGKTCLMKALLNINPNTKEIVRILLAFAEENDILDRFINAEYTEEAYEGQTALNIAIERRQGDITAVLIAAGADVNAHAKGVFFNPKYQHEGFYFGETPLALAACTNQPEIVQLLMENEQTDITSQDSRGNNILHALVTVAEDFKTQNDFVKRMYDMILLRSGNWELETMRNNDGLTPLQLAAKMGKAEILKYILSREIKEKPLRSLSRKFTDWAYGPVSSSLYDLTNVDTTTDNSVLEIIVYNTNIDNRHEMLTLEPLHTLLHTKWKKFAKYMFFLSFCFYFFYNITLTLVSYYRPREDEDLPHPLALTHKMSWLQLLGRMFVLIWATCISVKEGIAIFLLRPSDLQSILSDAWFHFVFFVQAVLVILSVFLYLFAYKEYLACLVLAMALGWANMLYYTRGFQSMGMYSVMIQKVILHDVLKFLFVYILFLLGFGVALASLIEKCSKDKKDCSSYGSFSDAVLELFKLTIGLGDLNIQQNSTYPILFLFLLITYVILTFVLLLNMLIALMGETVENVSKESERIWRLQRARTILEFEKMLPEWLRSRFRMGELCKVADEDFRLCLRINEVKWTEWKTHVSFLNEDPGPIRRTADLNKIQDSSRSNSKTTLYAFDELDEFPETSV
Briefly: Whole-cell patch clamp in CHO cells transfected with mouse Trpv3 cDNA. It is filed as cell-based. Particulars: miR-711 10 μM; carvacrol 300 μM. Here is the method:
as §1, §2

As to “miR-711: mmu-miR-711: gggacccggggagagauguaag (SEQ ID NO: 5) (GGGACCCGGGGAGAGAUGUAAG; chemistry not given here)”, the inward currents entry in series [1] and in series [2] was “failed to trigger inward currents” each time.
